What was measured:
[1] = system: islets from both wild type and β3−/− mice; experiment: glucose-induced [Ca2+]i oscillations in islets/β-cells (fura-2 340/380 nm fluorescence ratio); format: cell-based, mouse
Source text: Changes in [Ca^2+]i were next evaluated. […] The changes in [Ca^2+]i subsequent to the initial increase were categorized into three groups: slow oscillations (period of approximately 160 seconds), fast oscillations (period of approximately 10 seconds) and no oscillations. In wild type mice, 43 recordings (43 islets) were made.

[2] = system: islets from β3−/− mice compared to wild type mice; experiment: increase in [Ca2+]i on addition of 2.5 mM extracellular Ca2+ after depletion of the Ca2+-pool; format: cell-based, mouse; settings: 2 μM; Ca2+-pool depleted
Experimental: (§1) The whole-cell configuration of the patch-clamp technique was performed as follows: pipettes were pulled from borosilicate glass, coated with Sylgard near the tips and fire-polished. The pipettes ([…]) were filled with a solution containing 150 mM N-methyl-D-glucamine, 125 mM HCl, 1.2 mM MgCl2, 10 mM EGTA, 5 mM HEPES and 3 mM MgATP. pH was adjusted to 7.15 with KOH. Bath buffer contained (in mM) NaCl 138, KCl 5.6, MgCl2 1.2, CaCl2 10, HEPES 5 and pH 7.4. Islets or isolated cells were loaded with 2 μM fura 2/AM for 30 min in KRBB. For measurements of CCh (carbamylcholine) effects in Ca^2+-free medium, KRBB containing no Ca^2+ and 100 μM EGTA was used. After loading, a single islet or cells attached to a coverslip were transferred to an open perfusion chamber and maintained at 37° C. Measurements of 340/380 nm fluorescence ratio, reflecting [Ca^2+]i, were done as described in the art (Zaitsev, S. V. et al. 1995, Proc. Natl. Acad. Sci. USA 92:9712-9716). Time constant of decay in [Ca^2+]i was calculated with a double exponential decay equation using quasi Newton algorithm (Statistica for Windows, v. 5.0, StatSoft, Inc., USA). For measurements of [Ca^2+]ER, the low affinity Ca^2+-sensitive fluorescent dye X-Rhod-5N (Molecular Probes) was employed. […] were incubated with 5 μM X-Rhod-5N/AM for 1 hour at 4° C. to ensure dye loading into intracellular compartments. […]

[3] = system: islets from control and β3−/− mice; experiment: insulin release in response to glucose from isolated islets; format: cell-based, mouse; settings: islets treated with thapsigargin
Experimental: Islets of Langerhans were isolated by collagenase digestion and maintained overnight in RPMI 1640 culture medium (Flow Laboratories, UK). Single cells, obtained by shaking the islets in Ca^2+-free medium, were seeded into plastic dishes. For measurements of insulin release, islets were pre-incubated in Krebs-Ringer bicarbonate buffer (KRBB) for 30 min at 37° C. Groups of 3 islets were transferred to tubes containing 0.3 ml KRBB with test substances and incubated for another 30 min at 37° C. The incubation was terminated by cooling the samples on ice. Samples were stored at −20° C. until insulin was analyzed.
To further verify this notion, changes in [Ca^2+]i and insulin exocytosis were measured simultaneously, applying a depolarizing pulse protocol mimicking an oscillatory versus a monophasic increase in [Ca^2+]i.

[4] = system: islets from both wild type and β3−/− mice; settings: treatment of β-cells; Roe et al. 1998; cited from earlier work
[5] = system: islets from both β3−/− and wild type mice; experiment: carbamylcholine-induced activation of PLC, [Ca2+]i in islets; format: cell-based, mouse
Experimental: as §1

NCCOB(c1ccccc1)c1ccccc1 [2-APB, 2-aminoethoxydiphenyl borane]
effect on [Ca2+]i oscillations (blocking the InsP3-receptor) ([1]; β-cells from β3−/− mice): transformed [Ca^2+]i oscillations from fast into slow

[Gd] [gadolinium]
effect on the increase in [Ca2+]i after addition of 2.5 mM extracellular Ca2+ [2]: did not affect

C/C=C(/C)C(=O)O[C@H]1C(C)=C2[C@H]([C@@H]1OC(=O)CCCCCCC)[C@@](C)(OC(C)=O)C[C@H](OC(=O)CCC)[C@@]1(O)[C@H]2OC(=O)[C@@]1(C)O [thapsigargin]
effect on glucose-induced oscillations in [Ca2+]i ([1]; 1 μM, 30 min preincubation, islets from both wild type and β3−/− mice): prevented glucose-induced oscillations in [Ca^2+]i | insulin release in response to glucose, control versus β3−/− mice [3]: no different | effect on [Ca2+]i oscillations [4]: transform [Ca^2+]i oscillations into a monophasic elevation in [Ca^2+]i

C[N+](C)(C)CCOC(N)=O.[Cl-] [Carbamylcholine, carbamylcholine]
effect on [Ca2+]i [5]: produced a transient increase in [Ca^2+]i
